Measured values reported in paper PMC12449377, “Psychedelic-like effects induced by 2,5-dimethoxy-4-iodoamphetamine, lysergic acid diethylamide, and psilocybin in male and female C57BL/6J mice” (Psychopharmacology, 2025).

Columns and labels:
5-HT2A = target: T1, 5-HT2A (Mus musculus, UniProt P35363); assay: Competition binding vs [3H]M100907 in mouse brain membranes
T1 construct: tissue BioIVT; host or cells: whole C57BL/6 mouse brain minus cerebellum, male and female
Protocol: (§1) Competition binding studies were conducted in mouse brain tissue as previously described (Glatfelter et al. [2022b]). Briefly, the experiments utilized membranes prepared from whole C57BL/6 mouse brain minus cerebellum (BioIVT, Westbury, NY, USA). […] We assessed the ability of test drugs to compete for [^3H]M100907 binding at 5-HT2A (1 nM) or [^3H]8-OH-DPAT binding at 5-HT1A (0.5 nM). Radioligands were purchased commercially (PerkinElmer, Boston, MA, USA). Nonspecific binding was determined using 10 µM ketanserin for 5-HT2A and serotonin for 5-HT1A. All data represent 3 experiments performed in triplicate.
(§2) Concentration-response data were fit to a single site non-linear regression model. For the HTR studies, potencies were determined from the ascending limb of the dose-response curves using ED50 potency values from [agonist] vs. response (variable slope, four parameter) least squares fit non-linear regression analyses, whereas efficacy was defined by the top output parameter or Emax from the aforementioned analyses. […] Best-fit values for ED50 and Emax from non-linear regression analyses were compared by extra sum-of-squares F tests. Mean effects for each behavioral endpoint were compared using two-way ANOVA (dose x sex), followed by Sidak’s multiple comparisons post-hoc test. Mean effects for pooled mouse behavioral data were compared via Welch’s ANOVA with Dunnett’s T3 post-hoc test, comparing all doses to saline vehicle controls (0 mg/kg). Alpha was set to 0.05 for all analyses.

5-HT1A = target: T2, 5-HT1A (Mus musculus, UniProt Q64264); assay: Competition binding vs [3H]8-OH-DPAT in mouse brain membranes
T2 construct: tissue BioIVT; host or cells: whole C57BL/6 mouse brain minus cerebellum, male and female
T2 sequence (Q64264 1-421): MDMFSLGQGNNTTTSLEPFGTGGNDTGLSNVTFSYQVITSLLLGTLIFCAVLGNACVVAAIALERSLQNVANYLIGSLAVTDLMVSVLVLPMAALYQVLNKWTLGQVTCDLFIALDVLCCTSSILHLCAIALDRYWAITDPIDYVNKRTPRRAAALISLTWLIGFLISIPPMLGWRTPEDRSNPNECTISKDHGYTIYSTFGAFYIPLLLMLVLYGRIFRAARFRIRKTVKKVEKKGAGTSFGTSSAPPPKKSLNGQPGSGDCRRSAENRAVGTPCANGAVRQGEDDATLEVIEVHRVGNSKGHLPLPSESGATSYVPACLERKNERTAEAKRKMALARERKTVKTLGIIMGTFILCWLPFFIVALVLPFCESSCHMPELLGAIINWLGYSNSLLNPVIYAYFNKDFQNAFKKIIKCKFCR
Protocol: as §1, §2

C57BL/6J mice [1] = assay: Body temperature change in mice; format: in vivo, mouse; conditions: for Body Temp Δ (°C) Mean: post 30 min session
Protocol: All mice were injected s.c. with temperature transponders (14 × 2 mm, model IPTT-300, Avidity Science, Waterford Wisconsin, USA) under brief isoflurane immobilization, and were given at least 1 week to recover (Glatfelter et al. [2022b]). Mice were single housed post-implant, and for the duration of the experiments, to protect their devices from being removed by cage mates. Temperature was measured noninvasively using a handheld reader which is sensitive to the transponder signals.
(§3) At 1–2 weeks prior to the beginning of experiments, mice were habituated to handling and receiving s.c. saline injections. On the day of an experiment, mice were acclimated to the testing room in their home cage for at least 30 min prior to the start of sessions. Prior to each session, mice were weighed, and resting body temperatures were recorded. Mice were then placed into experimental chambers for acclimation. Behavioral testing was carried out in TruScan mouse locomotor arenas equipped with photobeam arrays (Coulbourn Instruments, Holliston, MA, USA) that were modified with cylindrical inserts and transparent flooring to aid in semi-automated HTR detection as previously described (Glatfelter et al. [2022a]). After 5 min of acclimation, basal body temperature was recorded followed by s.c. injection of drug or vehicle, and mice were returned to test chambers for 30 min. Dose ranges for each drug were 0.03–10 mg/kg for DOI, 0.03–10 mg/kg for psilocybin, and 0.003–1 mg/kg for LSD. Mice were randomly assigned to specific doses at the beginning of the experiment and received different doses at each session.
(§4) During each session, locomotor activity was quantified via photobeam tracking of distance traveled in cm. Overhead GoPro Hero Black 7 video recordings (120 fps, 960p resolution) were analyzed using a commercially available software package from Clever Sys Inc. (Reston, VA, USA) for the measurement of HTR activity. Mouse body temperature was also collected post-session to calculate temperature change values (basal - post session temperature reading).
as §2

C57BL/6J mice [2] = assay: Locomotor activity (distance traveled) in mice; format: in vivo, mouse; conditions: for Locomotor Activity (cm) Mean: 30 min
Protocol: as §3, §4, §2

[3] = [3H]M100907 Binding ♀ m5-HT2A Ki, female mouse brain membranes
[4] = [3H]M100907 Binding ♂ m5-HT2A Ki, male mouse brain membranes
[5] = male and female mouse brain membranes, summary statement
[6] = [3H]8-OH-DPAT Binding ♀ m5-HT1A Ki, female mouse brain membranes
[7] = [3H]8-OH-DPAT Binding ♂ m5-HT1A Ki, male mouse brain membranes

T1 sequence (P35363 whole entry): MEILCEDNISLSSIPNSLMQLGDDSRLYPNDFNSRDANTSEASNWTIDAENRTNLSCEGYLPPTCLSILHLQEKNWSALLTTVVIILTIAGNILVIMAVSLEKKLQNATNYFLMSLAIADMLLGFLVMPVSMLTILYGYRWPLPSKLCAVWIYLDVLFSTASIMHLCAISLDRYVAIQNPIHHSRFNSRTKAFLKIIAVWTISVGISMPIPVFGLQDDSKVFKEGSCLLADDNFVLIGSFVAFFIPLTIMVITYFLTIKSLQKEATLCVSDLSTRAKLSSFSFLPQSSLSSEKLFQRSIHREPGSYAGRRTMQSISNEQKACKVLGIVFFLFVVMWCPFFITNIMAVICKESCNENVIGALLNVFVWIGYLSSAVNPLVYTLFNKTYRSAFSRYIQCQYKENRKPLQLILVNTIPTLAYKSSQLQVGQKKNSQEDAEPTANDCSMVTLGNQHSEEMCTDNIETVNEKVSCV

## COc1cc(CC(C)N)c(OC)cc1I (stereo not shown) [DOI, 2,5-dimethoxy-4-iodoamphetamine]
5-HT2A; [3]
  Ki: 11 nM
5-HT2A; [4]
  Ki: 13 nM
5-HT2A; [5]
  5-HT2A binding affinity (Ki), males and females: low nanomolar affinity
5-HT1A; [6]
  Ki: 2650 nM
5-HT1A; [7]
  Ki: 2870 nM
5-HT1A; [5]
  5-HT1A binding affinity (Ki), males and females: µM affinity
C57BL/6J mice [1]; 0.03 mg/kg s.c., female mice
  Body Temp Δ (°C) Mean: 0.0 °C
C57BL/6J mice [1]; 0.03 mg/kg s.c., male mice
  Body Temp Δ (°C) Mean: 0.2 °C
C57BL/6J mice [1]; 0.03 mg/kg s.c., pooled sexes
  Body Temp Δ (°C) Mean: 0.1 °C
C57BL/6J mice [1]; 0.1 mg/kg s.c., female mice
  Body Temp Δ (°C) Mean: 0.2 °C
C57BL/6J mice [1]; 0.1 mg/kg s.c., male mice
  Body Temp Δ (°C) Mean: 0.3 °C
C57BL/6J mice [1]; 0.1 mg/kg s.c., pooled sexes
  Body Temp Δ (°C) Mean: -0.1 °C
C57BL/6J mice [1]; 0.3 mg/kg s.c., female mice
  Body Temp Δ (°C) Mean: 0.2 °C
C57BL/6J mice [1]; 0.3 mg/kg s.c., male mice
  Body Temp Δ (°C) Mean: 0.6 °C
C57BL/6J mice [1]; 0.3 mg/kg s.c., pooled sexes
  Body Temp Δ (°C) Mean: 0.2 °C
C57BL/6J mice [1]; 1 mg/kg s.c., female mice
  Body Temp Δ (°C) Mean: -0.3 °C
C57BL/6J mice [1]; 1 mg/kg s.c., male mice
  Body Temp Δ (°C) Mean: -0.1 °C
C57BL/6J mice [1]; 1 mg/kg s.c., pooled sexes
  Body Temp Δ (°C) Mean: 0.4 °C
C57BL/6J mice [1]; 3 mg/kg s.c., female mice
  Body Temp Δ (°C) Mean: -0.3 °C
C57BL/6J mice [1]; 3 mg/kg s.c., male mice
  Body Temp Δ (°C) Mean: -0.1 °C
C57BL/6J mice [1]; 3 mg/kg s.c., pooled sexes
  Body Temp Δ (°C) Mean: -0.2 °C
C57BL/6J mice [1]; 10 mg/kg s.c., female mice
  Body Temp Δ (°C) Mean: -0.4 °C
C57BL/6J mice [1]; 10 mg/kg s.c., male mice
  Body Temp Δ (°C) Mean: -0.9 °C
C57BL/6J mice [1]; 10 mg/kg s.c., pooled sexes
  Body Temp Δ (°C) Mean: -0.6 °C
C57BL/6J mice [1]; 0.03-10 mg/kg s.c., both sexes
  Body temperature vs. vehicle controls: did not change body temperature
C57BL/6J mice [2]; 0.03 mg/kg s.c., female mice
  Locomotor Activity (cm) Mean: 2149 cm
C57BL/6J mice [2]; 0.03 mg/kg s.c., male mice
  Locomotor Activity (cm) Mean: 2753 cm
C57BL/6J mice [2]; 0.03 mg/kg s.c., pooled sexes
  Locomotor Activity (cm) Mean: 2408 cm
C57BL/6J mice [2]; 0.1 mg/kg s.c., female mice
  Locomotor Activity (cm) Mean: 2292 cm
C57BL/6J mice [2]; 0.1 mg/kg s.c., male mice
  Locomotor Activity (cm) Mean: 3045 cm
C57BL/6J mice [2]; 0.1 mg/kg s.c., pooled sexes
  Locomotor Activity (cm) Mean: 2606 cm
C57BL/6J mice [2]; 1 mg/kg s.c.
  Locomotor activity effect: marginal increase
C57BL/6J mice [2]; 1 mg/kg s.c., female mice
  Locomotor Activity (cm) Mean: 3246.7 cm
C57BL/6J mice [2]; 1 mg/kg s.c., male mice
  Locomotor Activity (cm) Mean: 4033.6 cm
C57BL/6J mice [2]; 1 mg/kg s.c., pooled sexes
  Locomotor Activity (cm) Mean: 3640 cm
C57BL/6J mice [2]; 3 mg/kg s.c., female mice
  Locomotor Activity (cm) Mean: 3192.6 cm
C57BL/6J mice [2]; 3 mg/kg s.c., male mice
  Locomotor Activity (cm) Mean: 3289.3 cm
C57BL/6J mice [2]; 3 mg/kg s.c., pooled sexes
  Locomotor Activity (cm) Mean: 3241 cm
C57BL/6J mice [2]; 10 mg/kg s.c., female mice
  Locomotor Activity (cm) Mean: 2459.7 cm
C57BL/6J mice [2]; 10 mg/kg s.c., male mice
  Locomotor Activity (cm) Mean: 2529.1 cm
C57BL/6J mice [2]; 10 mg/kg s.c., pooled sexes
  Locomotor Activity (cm) Mean: 2492 cm

## CCN(CC)C(=O)[C@@H]1C=C2c3cccc4[nH]cc(c34)C[C@H]2N(C)C1 [LSD, lysergic acid diethylamide]
5-HT2A; 5-HT2A binding affinity (Ki), males and females, male and female mouse brain membranes, summary statement
  Ki: 1 to 100 nM
5-HT2A; [3]
  Ki: 1.9 nM
5-HT2A; [4]
  Ki: 2.3 nM
5-HT1A; 5-HT1A binding affinity (Ki), males and females, male and female mouse brain membranes, summary statement
  Ki: 1 to 100 nM
5-HT1A; [6]
  Ki: 0.95 nM
5-HT1A; [7]
  Ki: 1.02 nM
C57BL/6J mice [1]; 0.003 mg/kg s.c., female mice
  Body Temp Δ (°C) Mean: -0.1 °C
C57BL/6J mice [1]; 0.003 mg/kg s.c., male mice
  Body Temp Δ (°C) Mean: -0.1 °C
C57BL/6J mice [1]; 0.003 mg/kg s.c., pooled sexes
  Body Temp Δ (°C) Mean: -0.1 °C
C57BL/6J mice [1]; 0.01 mg/kg s.c., female mice
  Body Temp Δ (°C) Mean: -0.1 °C
C57BL/6J mice [1]; 0.01 mg/kg s.c., male mice
  Body Temp Δ (°C) Mean: 0.3 °C
C57BL/6J mice [1]; 0.01 mg/kg s.c., pooled sexes
  Body Temp Δ (°C) Mean: 0.1 °C
C57BL/6J mice [1]; 0.03 mg/kg s.c., female mice
  Body Temp Δ (°C) Mean: -0.1 °C
C57BL/6J mice [1]; 0.03 mg/kg s.c., male mice
  Body Temp Δ (°C) Mean: 0.0 °C
C57BL/6J mice [1]; 0.03 mg/kg s.c., pooled sexes
  Body Temp Δ (°C) Mean: -0.1 °C
C57BL/6J mice [1]; 0.1 mg/kg s.c., female mice
  Body Temp Δ (°C) Mean: -0.3 °C
C57BL/6J mice [1]; 0.1 mg/kg s.c., male mice
  Body Temp Δ (°C) Mean: -0.1 °C
C57BL/6J mice [1]; 0.1 mg/kg s.c., pooled sexes
  Body Temp Δ (°C) Mean: -0.2 °C
C57BL/6J mice [1]; 0.3 mg/kg s.c., female mice
  Body Temp Δ (°C) Mean: -0.4 °C
C57BL/6J mice [1]; 0.3 mg/kg s.c., male mice
  Body Temp Δ (°C) Mean: -0.1 °C
C57BL/6J mice [1]; 0.3 mg/kg s.c., pooled sexes
  Body Temp Δ (°C) Mean: -0.2 °C
C57BL/6J mice [1]; 1 mg/kg s.c.
  Body temperature effect at highest dose: mild hypothermia
C57BL/6J mice [1]; 1 mg/kg s.c., female mice
  Body Temp Δ (°C) Mean: -0.9 °C
C57BL/6J mice [1]; 1 mg/kg s.c., male mice
  Body Temp Δ (°C) Mean: -1.5 °C
C57BL/6J mice [1]; 1 mg/kg s.c., pooled sexes
  Body Temp Δ (°C) Mean: -1.2 °C
C57BL/6J mice [2]; 0.003 mg/kg s.c., female mice
  Locomotor Activity (cm) Mean: 2499.8 cm
C57BL/6J mice [2]; 0.003 mg/kg s.c., male mice
  Locomotor Activity (cm) Mean: 2549.1 cm
C57BL/6J mice [2]; 0.003 mg/kg s.c., pooled sexes
  Locomotor Activity (cm) Mean: 2526 cm
C57BL/6J mice [2]; 0.01 mg/kg s.c., female mice
  Locomotor Activity (cm) Mean: 2581.2 cm
C57BL/6J mice [2]; 0.01 mg/kg s.c., male mice
  Locomotor Activity (cm) Mean: 2649.3 cm
C57BL/6J mice [2]; 0.01 mg/kg s.c., pooled sexes
  Locomotor Activity (cm) Mean: 2615 cm
C57BL/6J mice [2]; 0.03 mg/kg s.c., female mice
  Locomotor Activity (cm) Mean: 2977.4 cm
C57BL/6J mice [2]; 0.03 mg/kg s.c., male mice
  Locomotor Activity (cm) Mean: 2756.4 cm
C57BL/6J mice [2]; 0.03 mg/kg s.c., pooled sexes
  Locomotor Activity (cm) Mean: 2867 cm
C57BL/6J mice [2]; 0.1 mg/kg s.c., female mice
  Locomotor Activity (cm) Mean: 2290.0 cm
C57BL/6J mice [2]; 0.1 mg/kg s.c., male mice
  Locomotor Activity (cm) Mean: 2650.0 cm
C57BL/6J mice [2]; 0.1 mg/kg s.c., pooled sexes
  Locomotor Activity (cm) Mean: 2456 cm
C57BL/6J mice [2]; 0.3 mg/kg s.c., female mice
  Locomotor Activity (cm) Mean: 2309.5 cm
C57BL/6J mice [2]; 0.3 mg/kg s.c., male mice
  Locomotor Activity (cm) Mean: 2123.8 cm
C57BL/6J mice [2]; 0.3 mg/kg s.c., pooled sexes
  Locomotor Activity (cm) Mean: 2217 cm
C57BL/6J mice [2]; 1 mg/kg s.c.
  Locomotor activity effect: decreased locomotion
C57BL/6J mice [2]; 1 mg/kg s.c., female mice
  Locomotor Activity (cm) Mean: 2029.2 cm
C57BL/6J mice [2]; 1 mg/kg s.c., male mice
  Locomotor Activity (cm) Mean: 1571.6 cm
C57BL/6J mice [2]; 1 mg/kg s.c., pooled sexes
  Locomotor Activity (cm) Mean: 1800 cm
